# According to patent publication US9718825B2, “N-(4-(azaindazol-6-yl)-phenyl)-sulfonamides and their use as pharmaceuticals” (priority 2013, dated 2017):
# What was measured:
# [1] = biological target: recombinant human SGK-1 enzyme (Homo sapiens, UniProt O00141); assay: Enzymatic activity assay: SGK-1 substrate peptide phosphorylation (Caliper lab-chip mobility shift); type: biochemical; settings: peptide substrate 1 μM, ATP 10 μM, 60 min at 37° C., read-out: IC50 values for inhibition of SGK-1 enzymatic activity
# [2] = tested on: collagen type X (Col10a1) expression in mouse chondrogenic ATDC5 cells; assay: Chondrocyte hypertrophic differentiation in mouse chondrogenic ATDC5 cells (collagen type X expression); type: cell-based; settings: Col10a1 expression by quantitative real-time PCR after two weeks of cell culture; read-out: IC50 values for the inhibition of collagen type X expression in mouse chondrogenic ATDC5 cells
# Excerpt: D) Determination of the effect on chondrocyte hypertrophic differentiation in mouse chondrogenic ATDC5 cells
# The ATDC5 cell assay was used as in vitro model to determine the effects of the compounds of the invention on chondrocyte hypertrophic differentiation by monitoring the expression levels of collagen type X (Col10a1) as specific marker of chondrocyte hypertrophy.
# Background: ATDC5 cells are a clonal mouse embryonic cell line derived from multipotent AT805 teratocarcinoma cells (Atsumi, T. et al., A chondrogenic cell line derived from a differentiating culture of AT805 teratocarcinoma cells, Cell Differ. Dev. 1990, 30, 109-116). The cells can undergo insulin-dependent chondrogenic cell differentiation entailing distinct differentiation stages starting from an undifferentiated, subconfluent stage, a condensation stage, a cartilage nodule formation stage and a calcification stage within 45 days of in vitro culture. Chondrogenic differentiation can be shown by measuring the expression of the cartilage main collagen (Col2a1) and aggrecan (AGC1) and glycosaminoglycan-staining with Alcian Blue within two weeks after insulin-triggered differentiation, and hypertrophic differentiation can be monitored by the expression of collagen type X (Col10a1), a specific marker of chondrocyte hypertrophy within 21 days of in vitro culture. (Shukunami, C. et al., Chondrogenic Differentiation of Clonal Mouse Embryonic Cell Lne ATDC5 In Vitro: Differentiation-dependent Gene Expression of Parathyroid Hormone (PTH)/PTH-related Peptide Receptor, J. Cell Biol. 1996, 133, 457-468). Growth factor BMP-2 is known to stimulate cell differentiation and can stimulate early and late-phase ATDC5 differentiation (Shukunami, C. et al., Sequential Progression of the Differentiation Program by Bone Morphogenetic Protein-2 in Chondrogenic Cell Line ATDC5, Exp. Cell Res. 1998, 241, 1-11). Thyroid hormone triiodothyronine (T3) promotes hypertrophic differentiation of growth plate chondrocytes (Robson, H. et al., Thyroid Hormone Acts Directly on Growth Plate Chondrocytes to Promote Hypertrophic Differentiation and Inhibit Clonal Expansion and Cell Proliferation, Endocrinology 2000, 141, 3887-3897). Addition of BMP2 and T3 can accelerate ATDC5 hypertrophic differentiation leading to the strong induction Col10a1 expression between 10-14 days. SGK-inhibitors were added to differentiating ATDC5 cells for 14 days and Col10a1 gene expression was quantified to determine effects on chondrocyte hypertrophic differentiation.
# Cell assay description: ATDC5 cells were maintained in 300 cm^2 tissue culture flasks in DMEM/Ham's F12+5% FCS supplemented with 10 μg/ml human transferrin, 30 nM sodium selenite, 50 μg/ml kanamycin and grown at 37° C. in 5% CO2 in 95% air. To initiate cell differentiation, 9.9×10^4 cells were plated in 24 well plates and grown for 2 days. Medium was exchanged with DMEM/Ham's F12+5% FCS supplemented with 10 μg/ml human transferrin, 30 nM sodium selenite, 50 μg/ml ascorbic acid and 1 μg/ml BMP2. The assay was run in triplicates, compounds were added in […], and medium changed every 2-3 days including supplementation of compound. At day 7 after initiation of cell differentiation, 1 μM T3 was used as additional supplement in the cell culture.
# After two weeks of cell culture, RNA was isolated and converted to cDNA for determination of gene expression by quantitative real-time PCR. Cells were lysed in 600 μl of RLT-buffer (Qiagen) and total RNA was isolated using the RNA-easy Mini RNA isolation Kit (Qiagen) which was run on a Qiacube system (Qiagen) according to the supplier's instructions. RNA was isolated in 30 μl of pure water and the RNA content measured by UV-spectroscopy (Nanodrop, Peqlab). For cDNA synthesis 50 ng total RNA was reverse transcribed using the High Capacity cDNA Reverse Transcription Kit (Applied Biosystems, Product Number 4368813) according to the manufacturer's instructions. […]
# [3] = tested on: SGK-1 dependent phosphorylation of GSK3beta in U2OS cells; assay: SGK-1 dependent phosphorylation of GSK3beta in U2OS cells overexpressing recombinant SGK-1 and GSK3beta; type: cell-based, human; settings: U2OS cells, 6 h incubation, ratio of phosphorylated GSK3beta to total GSK3beta; read-out: IC50 values for inhibition of SGK-1 dependent phosphorylation of GSK3beta in U2OS cells
# [4] = tested on: SGK-1 dependent activation of ENaC-currents in A6 cell monolayers; assay: Functional electrophysiological assay (Ussing chamber): SGK-1 dependent activation of ENaC-currents in A6 cell monolayers; type: cell-based, Xenopus laevis; settings: hypoosmotic shock 45 min, amiloride-sensitive ΔI'sc, read-out: IC50 values for inhibition of SGK-1 dependent activation of ENaC-currents in A6 cell monolayers
# Description: C) Functional Electrophysiological Assay for Determination of SGK-1 Dependent Activation of ENaC-Currents in A6 Cell Monolayers
# Cells were grown in cell culture flasks (Nunc) at 28° C. in a humidified atmosphere with 4% CO2. The culture medium contained a 7:3 mixture of Leibovitz's L-15 (Sigma-Aldrich)/Coon's (Sigma-Aldrich) media supplemented with 10% fetal bovine serum (PAA), 20% sterile water, 25 mM NaHCO3 (Sigma-Aldrich), 100 U/ml penicillin (PAA) and 100 μg/ml streptomycin (PAA). The osmolality of the medium was 270 mOsml/kg H2O). Cells were detached with accutase (PAA) and seeded for electrophysiological measurements into transwell filter inserts (polyester 0.4 μm pore size, Corning) at a density of 0.4×10^6 cells/filter. Cells were cultivated for 7-10 days, and confluent A6 cell monolayers were identified by repetitive resistance measurements in cell culture medium using an EVOM^2 ohmmeter (World Precision Instruments). Monolayers with a resistance of >10 kOhm were considered confluent. Filters with confluent A6 cells were transferred into a continuously perfused Ussing-chamber, and electrophysiological parameters were measured under open circuit conditions using a transepithelial clamp amplifier (EP Design). Short circuit current (I′sc) was calculated by Ohm's law. […] The pH was adjusted to 8.2. All measurements were done at room temperature.
# To evaluate the effects of SGK inhibitors on ENaC-mediated transepithelial currents, A6 monolayers were first equilibrated for 5 min with isoosmotic Ringer solution from both the luminal and basolateral side of the cell layer. Amiloride was applied to the luminal site to establish the basal ENaC-dependent current (I′scbasal). Cell layers were then perfused from the basolateral side for 10 min with compounds in isotonic buffer or control isotonic buffer. SGK signaling leading to increased ENaC activity and subsequent increase in I′sc was stimulated by application of hypoosmotic Ringer-solution for 45 min to both sides of the A6 cell layer. ENaC-dependent I′sc after the hypoosmotic shock (I′schypo) was determined by application of amiloride at the end of the experiment. Total changes of amiloride-sensitive Isc was calculated as ΔI′sc=I′schypo−I′scbasal. […] The inhibition of ΔI′sc by the test compounds was determined relative to the ΔI′sc measured with control monolayers which were not treated with the test compound.
# Chain of recombinant human SGK-1 enzyme (O00141 whole entry, looked up): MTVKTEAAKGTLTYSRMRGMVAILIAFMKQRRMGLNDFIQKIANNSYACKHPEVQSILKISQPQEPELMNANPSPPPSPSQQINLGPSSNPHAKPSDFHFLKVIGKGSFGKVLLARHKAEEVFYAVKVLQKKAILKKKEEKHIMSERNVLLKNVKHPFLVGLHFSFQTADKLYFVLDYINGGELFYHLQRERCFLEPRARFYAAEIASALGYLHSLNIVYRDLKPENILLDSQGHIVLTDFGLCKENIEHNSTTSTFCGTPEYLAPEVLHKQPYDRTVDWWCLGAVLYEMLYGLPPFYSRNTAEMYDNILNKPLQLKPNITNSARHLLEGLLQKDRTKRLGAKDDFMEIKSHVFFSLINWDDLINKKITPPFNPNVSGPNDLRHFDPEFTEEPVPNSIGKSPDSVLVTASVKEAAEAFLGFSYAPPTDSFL
SMILES,IC50 [1],IC50 [2],IC50 [3],IC50 [4]
COCCCN1CCC(Oc2nc(-c3ccc(NS(=O)(=O)c4cc(F)ccc4F)cc3)nc3[nH]ncc23)CC1 [Example 394],120 nM,290 nM,,
COCCCN1CCC(Oc2nc(-c3ccc(NS(=O)(=O)c4cc(F)ccc4F)cc3)nc3[nH]nc(C)c23)CC1 [Example 397],8.2 nM,92 nM,,
Cc1n[nH]c2nc(-c3ccc(NS(=O)(=O)c4cc(F)ccc4F)cc3)nc(OC3CCN(C4CCC4)CC3)c12 [Example 398],25 nM,7.2 nM,,
CCN1CCCC(Oc2nc(-c3ccc(NS(=O)(=O)c4cc(Cl)ccc4F)cc3)nc3[nH]nc(C)c23)C1 (stereo not drawn) [Example 418],40 nM,30 nM,,
CCN1CCCC(Oc2nc(-c3ccc(NS(=O)(=O)c4cc(Cl)ccc4Cl)cc3)nc3[nH]nc(C)c23)C1 (stereo not drawn) [Example 422],40 nM,110 nM,,
CCN1CCCC(Oc2nc(-c3ccc(NS(=O)(=O)c4cc(OC)ccc4F)cc3)nc3[nH]nc(C)c23)C1 (stereo not drawn) [Example 424],13 nM,62 nM,,
CCOc1nc(-c2ccc(NS(=O)(=O)c3cc(Cl)ccc3Cl)cc2)nc2[nH]nc(C)c12 [Example 426],11 nM,60 nM,,
O=S(=O)(Nc1ccc(-c2nc(OC3CCC(O)CC3)c3cn[nH]c3n2)cc1F)c1cc(Cl)ccc1Cl (stereo not drawn) [Example 439],2.5 nM,44 nM,110 nM,
O=S(=O)(Nc1ccc(-c2nc(OC3CCC(O)CC3)c3cn[nH]c3n2)cc1F)c1cc(Cl)ccc1F (stereo not drawn) [Example 440],< 1.5 nM,81 nM,240 nM,
CCOc1nc(-c2ccc(NS(=O)(=O)c3cc(Cl)c(F)cc3F)cc2)nc2[nH]nc(N)c12 [Example 451],0.57 nM,10 nM,,
Cc1ccc(C#N)c(S(=O)(=O)Nc2ccc(-c3ncc4c(N)n[nH]c4n3)cc2)c1 [Example 453],1.6 nM,550 nM,2100 nM,
COc1ccc(Cl)c(S(=O)(=O)Nc2ccc(-c3ncc4c(N)n[nH]c4n3)cc2)c1 [Example 461],< 1.5 nM,,260 nM,180 nM
Cc1nc(-c2ccc(NS(=O)(=O)c3cc(Cl)ccc3C#N)cc2)nc2[nH]nc(N)c12 [Example 465],< 1.5 nM,700 nM,1200 nM,
Cc1nc(-c2ccc(NS(=O)(=O)c3cc(Cl)ccc3Cl)cc2)nc2[nH]nc(N3CCC4(CC3)COC4)c12 [Example 496],6.2 nM,140 nM,7000 nM,
Nc1n[nH]c2cc(-c3ccc(NS(=O)(=O)c4cc(Cl)c(F)cc4F)cc3)ncc12 [Example 555],< 1.5 nM,,3800 nM,600 nM
CC(=O)N1CCC(Oc2nc(-c3ccc(NS(=O)(=O)c4cc(Cl)ccc4F)cc3)cc3[nH]nc(C)c23)CC1 [Example 646],11 nM,340 nM,,
